The Deep4Chem optical property database

Experiment: solvent given as SMILES

Q: Which emission maximum (in C1CCOC1) does the source give for NS(=O)(=O)c1ccc(N2N=C(c3ccc(O)cc3)CC2c2ccc(Cl)cc2)cc1 (centres undefined) here?
A: 418 nm

Q: And the emission maximum (in C1COCCO1)?
A: 417 nm

Q: And the emission maximum (in CC#N)?
A: 417 nm

Q: What about the emission maximum (in CC(C)O) of the same compound?
A: 423 nm

Q: And the emission maximum (in CCO)?
A: 427 nm

Q: And the emission maximum (in CCOC(C)=O)?
A: 416 nm

Q: What about the emission maximum (in CN(C)C=O) of the same compound?
A: 422 nm

Q: And the emission maximum (in CO)?
A: 431 nm

Q: And the emission maximum (in CS(C)=O)?
A: 424 nm

Q: What about the emission maximum (in O) of the same compound?
A: 448 nm

Q: For CCCCc1cc(-c2cccc(COC)c2)oc1-c1cccc(-c2cc(CCCC)c(-c3cccc(-c4cc(CCCC)c(-c5cccc(-c6oc(-c7cccc(-c8oc(-c9cccc(-c%10oc(-c%11cccc(COC)c%11)cc%10CCCC)c9)cc8CCCC)c7)cc6CCCC)c5)o4)c3)o2)c1, which emission maximum (in ClC(Cl)Cl) is on record?
A: 374 nm

Q: What does the source list for N#CC(C#N)=C(/C=C/c1cc2c3c(c1)CCCN3CCC2)c1ccc2c3c(cccc13)CC2?
A: emission maximum (in C1CCOC1): 602 nm; emission maximum (in CC#N): 622 nm; emission maximum (in CC(C)=O): 619 nm; emission maximum (in CCOC(C)=O): 600 nm; emission maximum (in CN(C)C=O): 629 nm; emission maximum (in CO): 613 nm; emission maximum (in Cc1ccccc1): 580 nm; emission maximum (in ClC(Cl)Cl): 599 nm

Q: With C(=C\c1ccc(N(c2ccccc2)c2ccccc2)cc1)/c1ccccc1 as the compound, how does the emission maximum (in CC#N) read?
A: 455 nm

Q: And the emission maximum (in CCCCCC)?
A: 395 nm

Q: For C1=CC2C=c3c(cc4cccc5cc6ccccc6c3c45)C3=c4ccccc4=CC(=C1)C32 (centres undefined), which emission maximum (in ClCCl) is on record?
A: 683 nm

Q: What does the source list for Cc1ccc([C@@H]2C[C@](O)(c3ccccn3)C[C@](O)(c3ccccn3)[C@H]2C(=O)c2ccc(N(c3ccccc3)c3ccccc3)cc2)cc1?
A: emission maximum (in C1CCOC1): 495 nm; emission maximum (in CC#N): 525 nm; emission maximum (in CCO): 511 nm; emission maximum (in CCOC(C)=O): 496 nm; emission maximum (in CN(C)C=O): 523 nm; emission maximum (in ClCCl): 516 nm; emission maximum (in c1ccccc1): 466 nm

Q: Which emission maximum (in CN(C)C=O) does the source give for CCCCCCCCCCCCN1C(=O)c2ccc3c4ccc5c6c(ccc(c7ccc(c2c37)C1=O)c64)C(=O)N(CCCCCCCCCCCC)C5=O here?
A: 536 nm

Q: For CC1(C)C(/C=C/C=C/C=C/C=C2\N(CCCCS(=O)(=O)[O-])c3ccc4ccccc4c3C2(C)C)=[N+](CCCCS(=O)(=O)[O-])c2ccc3ccccc3c21, which emission maximum (in O) is on record?
A: 820 nm

Q: Which results are given for CN(C)c1ccc(-c2cc3c(ccc4c([N+](=O)[O-])cccc43)c(=O)o2)cc1?
A: emission maximum (in CC(C)=O): 530 nm; emission maximum (in CCOC(C)=O): 624 nm; emission maximum (in CN(C)C=O): 546 nm; emission maximum (in CO): 548 nm; emission maximum (in ClC(Cl)Cl): 634 nm

Q: For Cc1ccc(C2=Cc3c4ccccc4cc[n+]3[B-](F)(F)O2)cc1, which emission maximum (in ClC(Cl)Cl) is on record?
A: 471 nm

Q: Which emission maximum (in ClCCl) does the source give for CCOC(=O)COc1ccc(/C=C/C2=[N+]3C(=Cc4c5ccccc5c(-c5[nH]c(C)cc5C)n4[B-]3(F)F)C(C)=C2)cc1 here?
A: 705 nm

Q: For Clc1ccc(-c2nc3ccccc3n2-c2ccccc2)cc1, which emission maximum (in CC#N) is on record?
A: 367 nm

Q: Which emission maximum (in CC#N) does the source give for C=Cc1cc2ccc(OC(=O)c3ccccc3)cc2oc1=O here?
A: 420 nm

Q: With O=C1c2ccccc2-c2nc3c(F)c(F)c(F)c(F)c3n21 as the compound, how does the emission maximum (in ClCCl) read?
A: 485 nm

Q: Which emission maximum (in CC#N) does the source give for c1cc2c3ccc[n+]4cccc(c5ccc[n+](c1)c25)c34 here?
A: 442 nm

Q: What about the emission maximum (in CS(C)=O) of the same compound?
A: 443 nm

Q: What about the emission maximum (in C[N+](=O)[O-]) of the same compound?
A: 441 nm

Q: What about the emission maximum (in O) of the same compound?
A: 441 nm

Q: Which emission maximum (in ClC(Cl)Cl) does the source give for COc1ccc(-c2nc(-c3ccc(OC)cc3)n3ccccc23)cc1 here?
A: 479 nm

Q: Which emission maximum (in CCO) does the source give for CC1(C)C(/C=C/C=C/c2cc3ccc(O)cc3oc2=O)=[N+](CCCS(=O)(=O)[O-])c2ccc(S(=O)(=O)O)cc21 here?
A: 654 nm

Q: And the emission maximum (in CS(C)=O)?
A: 655 nm

Q: What about the emission maximum (in O) of the same compound?
A: 722 nm

Q: What does the source list for CC1=CC(C)=[N+]2C1=C(c1ccc(-c3c4ccccc4c(-c4ccccc4)c4ccccc34)cc1)c1c(C)cc(C)n1[B-]2(F)F?
A: emission maximum (in CC#N): 508 nm; emission maximum (in CCCCCC): 511 nm; emission maximum (in CCO): 510 nm; emission maximum (in CN(C)C=O): 510 nm; emission maximum (in Cc1ccccc1): 515 nm; emission maximum (in ClCCl): 512 nm

Q: Which emission maximum (in CCCCCC) does the source give for COC(=O)c1c(C(=O)OC)c2ccc(C)nn2c1C here?
A: 449 nm

Q: Which emission maximum (in CC#N) does the source give for NCCc1c[nH]c2ccc(O)cc12 here?
A: 332 nm

Q: And the emission maximum (in CC(C)O)?
A: 335 nm

Q: What about the emission maximum (in CO) of the same compound?
A: 334 nm

Q: What about the emission maximum (in O) of the same compound?
A: 337 nm

Q: For CC1(C)CCc2c(c3ccccc3c3nc4c(nc23)c2c(c3ccccc34)OC(C)(C)CC2)O1, which emission maximum (in C1CCCCC1) is on record?
A: 434.97 nm

Q: What about the emission maximum (in C1COCCO1) of the same compound?
A: 443.26 nm

Q: And the emission maximum (in CC#N)?
A: 449.03 nm

Q: And the emission maximum (in CC(C)O)?
A: 448.03 nm

Q: What about the emission maximum (in CCCCCC) of the same compound?
A: 434.22 nm

Q: And the emission maximum (in ClC(Cl)Cl)?
A: 446.43 nm

Q: What about the emission maximum (in c1ccccc1) of the same compound?
A: 441.7 nm

Q: With CC(=O)Nc1ccc(C2=C/C(=C\c3ccc([N+](=O)[O-])cc3)C(=O)O2)cc1 as the compound, how does the emission maximum (in C1COCCO1) read?
A: 550 nm

Q: With FC(F)(F)c1ccc(B2c3ccccc3Nc3ccccc32)c(C(F)(F)F)c1 as the compound, how does the emission maximum (in ClCCl) read?
A: 407 nm

Q: Which emission maximum (in CC(C)(C)c1ccc(-n2c3ccc([Si](c4ccccc4)(c4ccccc4)c4ccccc4)cc3c3cc([Si](c4ccccc4)(c4ccccc4)c4ccccc4)ccc32)cc1) does the source give for c1ccc(C2(c3ccccc3)c3ccccc3N(c3ccc(-c4nc([C@]56CC7CC(C[C@@H](C7)C5)C6)nc([C@]56C[C@H]7C[C@@H](C[C@H](C7)C5)C6)n4)cc3)c3ccccc32)cc1 here?
A: 445.29 nm

Q: And the emission maximum (in Cc1ccccc1)?
A: 451.05 nm

Q: For Nc1ncc2nc[nH]c2n1, which emission maximum (in O) is on record?
A: 380 nm

Q: With CCCc1ccc2c(c1)cc1n2B2c3c4c-1cccc4cc1cccc(c31)-c1cc3cc(CCC)ccc3n12 as the compound, how does the emission maximum (in C1CCOC1) read?
A: 565 nm

Q: For COc1ccc2c(c1)CCc1c(-c3ccccc3)c3n(c1-2)[B-](F)(F)[N+]1=C2C(=C(c4ccccc4)C1=N3)CCc1ccccc12, which emission maximum (in ClC(Cl)Cl) is on record?
A: 734 nm
